Values of other authors as cited in paper PMC7395068, “The evolution of strategies to minimise the risk of human drug-induced liver injury (DILI) in drug discovery and development” (Archives of Toxicology, 2020).
Like-named read-outs stand apart in the source and are kept apart here.

Assays:
[1] = cited from earlier work
[2] = test system: THLE or HepG2 cells, isolated mitochondria, BSEP; settings: cited from earlier work
[3] = cited from earlier work; remark: listed apart in the source
[4] = test system: primary human hepatocytes, NIH3T3 fibroblasts, BSEP, CYP3A4; settings: cited from earlier work
[5] = In vitro Assay, ref Schadt 2015

SMILES | Partition Hybrid HRM Score ([2]; In vitro Assay, ref Aleo 2019) | Ro2 Hybrid HRM Score ([2]; In vitro Assay, ref Aleo 2019) | In vivo DILI ([3]; ref Aleo 2019) | DILI +VE (5-8), DILI -VE (-4) ([1]; ref Chen 2016) | DILI severity category ([1]; ref Chen 2016) | In vivo DILI ([3]; ref Schadt 2015) | also measured
Nc1ccc(C(=O)O)c(O)c1 [4-aminosalicylic acid] |  |  |  |  |  |  | DILI +VE (5-8), DILI -VE (-4) ([1]; in vivo): +VE; DILI severity category ([1]; in vivo): vMost-DILI-Concern; Partition Hybrid HRM Score [2]: -VE; Ro2 Hybrid HRM Score [2]: -VE
CCOC(=O)Nc1ccc(NCc2ccc(F)cc2)nc1N [Flupirtine (Kv7 hepatotoxic@400)] | +VE | +VE | +VE |  |  |  | 
O=C(Nc1cccc2c(=O)cc(-c3nnn[nH]3)oc12)c1ccc(OCCCCc2ccccc2)cc1 [Pranlukast] | +VE | +VE | +VE |  |  |  | 
CCc1oc2ccccc2c1C(=O)c1ccc(O)cc1 [benzarone] | +VE | +VE | +VE | +VE | vMost-DILI-Concern |  | 
CCc1oc2ccccc2c1C(=O)c1cc(I)c(O)c(I)c1 [benziodarone] | +VE | +VE | +VE | +VE | vMost-DILI-Concern |  | 
CCOc1nc2cccc(C(=O)O)c2n1Cc1ccc(-c2ccccc2-c2nnn[nH]2)cc1 [candesartan] | -VE | -VE | +VE | +VE | vLess-DILI-Concern |  | 
N.N.[Cl][Pt][Cl] [cisplatin] |  | -VE |  |  |  |  | 
CC[C@H]1OC(=O)[C@H](C)[C@@H](O[C@H]2C[C@@](C)(OC)[C@@H](O)[C@H](C)O2)[C@H](C)[C@@H](O[C@@H]2O[C@H](C)C[C@H](N(C)C)[C@H]2O)[C@](C)(OC)C[C@@H](C)C(=O)[C@H](C)[C@@H](O)[C@]1(C)O [clarithromycin] |  |  |  | +VE | vMost-DILI-Concern | +VE | Cellular toxicity (3T3 cells) [4, 5]: -VE; Combined Assay [4, 5]: +VE; GSH adduct HML [4, 5]: -VE; Hepatocyte cellular toxicity [4, 5]: -VE; MitoTox 3T3 [4, 5]: +VE; TDI CYP3A4 [4, 5]: -VE; hBSEP inhibition [4, 5]: -VE; In vivo DILI ([3]; […]): -VE
CN1CCC[C@@H]1CCO[C@](C)(c1ccccc1)c1ccc(Cl)cc1 [clemastine] | -VE | -VE | -VE | -VE | vNo-DILI-Concern |  | In vivo DILI ([3]; […]): -VE
O=C1CN=C(c2ccccc2Cl)c2cc([N+](=O)[O-])ccc2N1 [clonazepam] |  |  |  | +VE | vLess-DILI-Concern | -VE | Cellular toxicity (3T3 cells) [4]: -VE; Combined Assay [4]: -VE; GSH adduct HML [4]: -VE; Hepatocyte cellular toxicity [4]: -VE; MitoTox 3T3 [4]: -VE; TDI CYP3A4 [4]: -VE; hBSEP inhibition [4]: -VE
CN(C)CCC=C1c2ccccc2C=Cc2ccccc21 [cyclobenzaprine] |  |  |  | +VE | vLess-DILI-Concern | -VE | Cellular toxicity (3T3 cells) [4, 5]: +VE; Combined Assay [4, 5]: -VE; GSH adduct HML [4, 5]: -VE; Hepatocyte cellular toxicity [4, 5]: -VE; MitoTox 3T3 [4, 5]: -VE; TDI CYP3A4 [4, 5]: -VE; hBSEP inhibition [4, 5]: -VE
CN1C[C@H](C(=O)N[C@]2(C)O[C@@]3(O)[C@@H]4CCCN4C(=O)[C@H](Cc4ccccc4)N3C2=O)C[C@@H]2c3cccc4[nH]cc(c34)C[C@H]21 [dihydroergotamine] |  |  | -VE | -VE | vNo-DILI-Concern |  | Partition Hybrid HRM Score [2]: -VE; Ro2 Hybrid HRM Score [2]: -VE
CN1c2c(oc(=O)n(-c3ccccn3)c2=O)-c2ccccc2S1(=O)=O [droxicam] |  |  |  | +VE | vMost-DILI-Concern | +VE | Cellular toxicity (3T3 cells) [4, 5]: -VE; Combined Assay [4, 5]: -VE; GSH adduct HML [4, 5]: -VE; Hepatocyte cellular toxicity [4, 5]: -VE; MitoTox 3T3 [4, 5]: -VE; TDI CYP3A4 [4, 5]: -VE; hBSEP inhibition [4, 5]: -VE
NC(N)=Nc1nc(CSCCN/C=N/S(=O)(=O)c2ccc(Br)cc2)cs1 [ebrotidine] | +VE | +VE | +VE | +VE | vMost-DILI-Concern |  | 
COC(=O)CCc1ccc(OCC(O)CNC(C)C)cc1 (centres unmarked) [esmolol] | +VE | -VE | -VE | -VE | vNo-DILI-Concern |  | 
C[C@]12CC[C@@H]3c4ccc(O)cc4CC[C@H]3[C@@H]1CC[C@@H]2O [estradiol] |  |  |  |  |  |  | DILI +VE (5-8), DILI -VE (-4) ([1]; in vivo): +VE; DILI severity category ([1]; in vivo): vLess-DILI-Concern; Partition Hybrid HRM Score [2]: -VE; Ro2 Hybrid HRM Score [2]: -VE
C=C(CC)C(=O)c1ccc(OCC(=O)O)c(Cl)c1Cl [ethacrynic acid] |  |  |  |  |  |  | Partition Hybrid HRM Score, In vitro Assay ([2]; Partition hybrid, ref Aleo 2019): +VE; Ro2 Hybrid HRM Score, In vitro Assay ([2]; Rule of Two hybrid, ref Aleo 2019): +VE

SMILES | Partition Hybrid HRM Score ([2]; In vitro Assay, ref Aleo 2019) | Ro2 Hybrid HRM Score ([2]; In vitro Assay, ref Aleo 2019) | In vivo DILI ([3]; ref Aleo 2019) | DILI +VE (5-8), DILI -VE (-4) ([1]; ref Chen 2016) | DILI severity category ([1]; ref Chen 2016) | In vivo DILI ([3]; ref Schadt 2015) | also measured
Cc1nc(-c2ccc(OCC(C)C)c(C#N)c2)sc1C(=O)O [febuxostat] | +VE | +VE | +VE | +VE | vMost-DILI-Concern |  | 
O=C(COc1ccc(Cl)cc1)N1CCN(Cc2ccc3c(c2)OCO3)CC1 [fipexide] | +VE | +VE | +VE | +VE | vMost-DILI-Concern |  | 
O=C(CCCN1CCC(O)(c2ccc(Cl)cc2)CC1)c1ccc(F)cc1 [haloperidol] | -VE | -VE |  |  |  |  | 
CC(C)(C)NC(=O)[C@@H]1CN(Cc2cccnc2)CCN1C[C@@H](O)C[C@@H](Cc1ccccc1)C(=O)N[C@H]1c2ccccc2C[C@H]1O [indinavir] |  |  |  |  |  |  | Partition Hybrid HRM Score [2]: +VE; Ro2 Hybrid HRM Score [2]: +VE
COC(=O)C1=C(C)NC(C)=C(C(=O)OC(C)C)C1c1cccc2nonc12 (centres unmarked) [isradipine] |  |  |  | +VE | vLess-DILI-Concern | -VE | Cellular toxicity (3T3 cells) [4, 5]: +VE; Combined Assay [4, 5]: -VE; GSH adduct HML [4, 5]: +VE; Hepatocyte cellular toxicity [4, 5]: +VE; MitoTox 3T3 [4, 5]: -VE; TDI CYP3A4 [4, 5]: -VE; hBSEP inhibition [4, 5]: +VE
CCCNS(=O)(=O)Nc1ncnc(OCCOc2ncc(Br)cn2)c1-c1ccc(Br)cc1 [macitentan] | +VE | +VE | +VE |  |  |  | 
COCCc1ccc(OCC(O)CNC(C)C)cc1 (centres unmarked) [metoprolol] | +VE | -VE |  |  |  |  | 
Cc1ncc2n1-c1ccc(Cl)cc1C(c1ccccc1F)=NC2 [midazolam] |  |  |  | -VE | vNo-DILI-Concern | -VE | Cellular toxicity (3T3 cells) [4]: -VE; Combined Assay [4]: +VE; GSH adduct HML [4]: +VE; Hepatocyte cellular toxicity [4]: +VE; MitoTox 3T3 [4]: +VE; TDI CYP3A4 [4]: -VE; hBSEP inhibition [4]: +VE
OC(CNCC(O)C1CCc2cc(F)ccc2O1)C1CCc2cc(F)ccc2O1 (centres unmarked) [nebivolol] |  |  |  | -VE | Ambiguous DILI-concern | -VE | Cellular toxicity (3T3 cells) [4, 5]: -VE; Combined Assay [4, 5]: -VE; GSH adduct HML [4, 5]: -VE; Hepatocyte cellular toxicity [4, 5]: -VE; MitoTox 3T3 [4, 5]: -VE; TDI CYP3A4 [4, 5]: -VE; hBSEP inhibition [4, 5]: -VE
CCCc1nc(C(C)(C)O)c(C(=O)O)n1Cc1ccc(-c2ccccc2-c2nnn[nH]2)cc1 [olmesartan] |  |  |  | -VE | Ambiguous DILI-concern | -VE | Cellular toxicity (3T3 cells) [4, 5]: -VE; Combined Assay [4, 5]: -VE; GSH adduct HML [4, 5]: -VE; Hepatocyte cellular toxicity [4, 5]: -VE; MitoTox 3T3 [4, 5]: -VE; TDI CYP3A4 [4, 5]: -VE; hBSEP inhibition [4, 5]: -VE; In vivo DILI ([3]; […]): -VE
Cc1ccc(Nc2nccc(N(C)c3ccc4c(C)n(C)nc4c3)n2)cc1S(N)(=O)=O [pazopanib] | +VE | +VE |  |  |  |  | 
COc1ccccc1OCC(O)CN1CCN(CC(=O)Nc2c(C)cccc2C)CC1 (centres unmarked) [ranolazine] |  |  |  | -VE | vNo-DILI-Concern | -VE | Cellular toxicity (3T3 cells) [4]: -VE; Combined Assay [4]: +VE; GSH adduct HML [4]: -VE; Hepatocyte cellular toxicity [4]: -VE; MitoTox 3T3 [4]: +VE; TDI CYP3A4 [4]: -VE; hBSEP inhibition [4]: -VE
O=C(O)COc1ccc(C(=O)c2cccs2)c(Cl)c1Cl [ticrynafen] | +VE | +VE | +VE |  |  |  | 
Cc1ccc(/C(=C\CN2CCCC2)c2ccccn2)cc1 [triprolidine] | -VE | -VE |  |  |  |  | 
CCCCC(=O)N(Cc1ccc(-c2ccccc2-c2nnn[nH]2)cc1)[C@H](C(=O)O)C(C)C [valsartan] |  |  |  |  |  |  | DILI +VE (5-8), DILI -VE (-4) ([1]; in vivo): +VE; DILI severity category ([1]; in vivo): vLess-DILI-Concern; Ro2 Hybrid HRM Score [2]: +VE
Cc1ccc(-c2nc3ccc(C)cn3c2CC(=O)N(C)C)cc1 [zolpidem] |  |  |  | -VE | Ambiguous DILI-concern | -VE | Cellular toxicity (3T3 cells) [4]: -VE; Combined Assay [4]: -VE; GSH adduct HML [4]: -VE; Hepatocyte cellular toxicity [4]: -VE; MitoTox 3T3 [4]: -VE; TDI CYP3A4 [4]: -VE; hBSEP inhibition [4]: -VE; In vivo DILI ([3]; […]): -VE
